Data: ChEMBL document CHEMBL3102714 (J Med Chem, 2013)
Where a SMILES comes first, the peptide text is derived from it.

Experiments:
Format in all cases: cell-based
[1] = target: Nicotinic acetylcholine receptor alpha6/alpha3/beta4 (Homo sapiens, UniProt P30926+P32297+Q15825); experiment: Antagonist activity at human alpha6alpha3beta4 nAChR expressed in Xenopus oocytes assessed as inhibition of ACh-induced current by voltage clamp electrophysiology method
[2] = target: Neuronal acetylcholine receptor; alpha3/alpha6/beta2/beta3 (Homo sapiens, UniProt P17787+P32297+Q05901+Q15825); experiment: Antagonist activity at human alpha6/alpha3beta2beta3 nAChR expressed in Xenopus oocytes assessed as inhibition of ACh-induced current by voltage clamp electrophysiology method
[3] = target: Neuronal acetylcholine receptor; alpha3/beta2 (Homo sapiens, UniProt P17787+P32297); experiment: Antagonist activity at human alpha3beta2 nAChR expressed in Xenopus oocytes assessed as inhibition of ACh-induced current by voltage clamp electrophysiology method
[4] = target: Neuronal acetylcholine receptor; alpha3/beta4 (Homo sapiens, UniProt P30926+P32297); experiment: Antagonist activity at human alpha3beta4 nAChR expressed in Xenopus oocytes assessed as inhibition of ACh-induced current by voltage clamp electrophysiology method
Sequence of Neuronal acetylcholine receptor; alpha3/beta4 (P30926 whole entry): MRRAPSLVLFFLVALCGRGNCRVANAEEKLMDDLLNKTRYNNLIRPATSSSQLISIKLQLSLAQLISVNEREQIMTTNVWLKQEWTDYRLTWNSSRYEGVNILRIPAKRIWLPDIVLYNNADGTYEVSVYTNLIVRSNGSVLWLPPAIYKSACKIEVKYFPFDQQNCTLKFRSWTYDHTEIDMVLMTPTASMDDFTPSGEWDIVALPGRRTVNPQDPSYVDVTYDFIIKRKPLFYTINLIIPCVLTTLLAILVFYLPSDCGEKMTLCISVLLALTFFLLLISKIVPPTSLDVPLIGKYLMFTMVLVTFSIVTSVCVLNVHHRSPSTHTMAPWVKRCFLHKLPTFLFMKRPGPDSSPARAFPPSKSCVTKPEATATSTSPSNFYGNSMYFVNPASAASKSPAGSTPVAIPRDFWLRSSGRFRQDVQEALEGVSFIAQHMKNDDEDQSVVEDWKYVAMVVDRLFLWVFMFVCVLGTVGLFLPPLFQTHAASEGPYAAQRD
Sequence of Neuronal acetylcholine receptor; alpha3/beta4 (P32297 whole entry): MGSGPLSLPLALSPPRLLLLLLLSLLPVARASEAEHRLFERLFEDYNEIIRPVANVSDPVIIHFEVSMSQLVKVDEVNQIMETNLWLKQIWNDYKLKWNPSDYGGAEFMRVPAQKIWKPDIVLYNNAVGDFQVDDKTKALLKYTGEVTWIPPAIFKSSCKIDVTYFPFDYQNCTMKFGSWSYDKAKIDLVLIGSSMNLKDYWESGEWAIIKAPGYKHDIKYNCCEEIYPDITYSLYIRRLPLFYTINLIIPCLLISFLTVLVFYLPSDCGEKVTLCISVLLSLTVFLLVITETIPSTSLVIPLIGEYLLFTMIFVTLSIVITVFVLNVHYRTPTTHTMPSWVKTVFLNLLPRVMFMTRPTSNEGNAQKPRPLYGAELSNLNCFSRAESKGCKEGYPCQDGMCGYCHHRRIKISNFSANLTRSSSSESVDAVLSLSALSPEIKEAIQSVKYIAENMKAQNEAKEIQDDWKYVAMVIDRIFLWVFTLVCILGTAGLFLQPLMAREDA

Sequence of Nicotinic acetylcholine receptor alpha6/alpha3/beta4 (P30926 whole entry): as the sequence (P30926 whole entry) above
Sequence of Nicotinic acetylcholine receptor alpha6/alpha3/beta4 (P32297 whole entry): as the sequence (P32297 whole entry) above
Sequence of Nicotinic acetylcholine receptor alpha6/alpha3/beta4 (Q15825 whole entry): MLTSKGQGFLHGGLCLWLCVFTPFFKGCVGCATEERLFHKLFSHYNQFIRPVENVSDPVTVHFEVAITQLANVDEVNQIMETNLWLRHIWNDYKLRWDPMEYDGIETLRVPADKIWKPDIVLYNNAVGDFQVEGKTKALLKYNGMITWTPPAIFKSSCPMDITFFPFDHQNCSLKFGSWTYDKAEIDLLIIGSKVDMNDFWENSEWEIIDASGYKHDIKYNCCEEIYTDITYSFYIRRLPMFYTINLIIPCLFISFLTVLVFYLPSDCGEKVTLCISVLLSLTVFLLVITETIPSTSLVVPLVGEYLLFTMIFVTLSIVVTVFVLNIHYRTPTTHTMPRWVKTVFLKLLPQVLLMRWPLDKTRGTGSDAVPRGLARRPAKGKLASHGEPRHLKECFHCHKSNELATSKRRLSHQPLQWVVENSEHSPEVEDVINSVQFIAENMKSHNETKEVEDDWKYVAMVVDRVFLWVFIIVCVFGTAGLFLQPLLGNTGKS
Sequence of Neuronal acetylcholine receptor; alpha3/alpha6/beta2/beta3 (P17787 whole entry): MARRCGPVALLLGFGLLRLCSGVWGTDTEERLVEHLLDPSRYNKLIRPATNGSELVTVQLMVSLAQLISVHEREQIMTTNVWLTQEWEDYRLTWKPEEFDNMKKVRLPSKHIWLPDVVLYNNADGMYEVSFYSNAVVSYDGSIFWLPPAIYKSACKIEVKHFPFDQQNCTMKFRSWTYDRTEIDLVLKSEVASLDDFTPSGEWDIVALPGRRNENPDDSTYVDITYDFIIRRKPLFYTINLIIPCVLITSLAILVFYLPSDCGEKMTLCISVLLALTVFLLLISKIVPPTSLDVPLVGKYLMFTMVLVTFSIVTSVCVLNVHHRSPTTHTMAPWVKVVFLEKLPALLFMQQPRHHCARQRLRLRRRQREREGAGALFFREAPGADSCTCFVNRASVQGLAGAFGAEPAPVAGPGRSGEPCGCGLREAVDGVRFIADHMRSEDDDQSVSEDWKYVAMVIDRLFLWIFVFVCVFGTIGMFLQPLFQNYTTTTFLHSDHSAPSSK
Sequence of Neuronal acetylcholine receptor; alpha3/alpha6/beta2/beta3 (P32297 whole entry): as the sequence (P32297 whole entry) above
Sequence of Neuronal acetylcholine receptor; alpha3/alpha6/beta2/beta3 (Q15825 whole entry): as the sequence (Q15825 whole entry) above
Sequence of Neuronal acetylcholine receptor; alpha3/alpha6/beta2/beta3 (Q05901 whole entry): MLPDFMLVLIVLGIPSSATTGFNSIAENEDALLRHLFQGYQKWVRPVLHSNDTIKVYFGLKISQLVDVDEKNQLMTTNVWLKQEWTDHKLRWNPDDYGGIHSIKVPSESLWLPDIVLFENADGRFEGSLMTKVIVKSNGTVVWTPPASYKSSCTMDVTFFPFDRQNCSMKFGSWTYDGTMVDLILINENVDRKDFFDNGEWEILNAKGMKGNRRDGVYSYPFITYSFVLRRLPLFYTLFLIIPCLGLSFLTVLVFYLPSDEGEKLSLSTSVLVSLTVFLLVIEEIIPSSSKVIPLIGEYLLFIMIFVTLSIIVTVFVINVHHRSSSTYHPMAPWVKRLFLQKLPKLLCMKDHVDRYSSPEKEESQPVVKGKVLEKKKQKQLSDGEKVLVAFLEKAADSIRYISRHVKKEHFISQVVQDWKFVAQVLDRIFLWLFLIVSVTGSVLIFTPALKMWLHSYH
Sequence of Neuronal acetylcholine receptor; alpha3/beta2 (P17787 whole entry): as the sequence (P17787 whole entry) above
Sequence of Neuronal acetylcholine receptor; alpha3/beta2 (P32297 whole entry): as the sequence (P32297 whole entry) above

Which results are given for `CC[C@H](C)[C@@H]1NC(=O)[C@H](CCC(N)=O)NC(=O)[C@@H]2CCCN2C(=O)[C@H](CC(N)=O)NC(=O)[C@H](Cc2cnc[nH]2)NC(=O)[C@H](C(C)C)NC(=O)[C@H]([C@@H](C)O)NC(=O)[C@@H]2CSSC[C@H](NC(=O)[C@@H]3CCCN3C(=O)[C@H](CC(=O)O)NC(=O)[C@@H](N)CCCN=C(N)N)C(=O)N[C@@H](CSSC[C@@H](C(N)=O)NC1=O)C(=O)N[C@@H](CO)C(=O)N[C@@H](CC(N)=O)C(=O)N1CCC[C@H]1C(=O)N[C@@H](C(C)C)C(=O)N2` (HELM PEPTIDE1{R.D.P.C.C.S.N.P.V.C.T.V.H.N.P.Q.I.C.[am]}$PEPTIDE1,PEPTIDE1,4:R3-10:R3|PEPTIDE1,PEPTIDE1,5:R3-18:R3$$$V2.0)?
IC50 [1]: 30.5 nM; IC50 [2]: 0.95 nM; IC50 [3]: 74.2 nM; IC50 [4]: 518 nM
